The test system of the experiment is MV-4-11 cells. In words: Gene expression microarray analysis (Affymetrix PrimeView) and GSEA. More on the design: RFU PODN (11730768_x_at) / Fold change /veh PODN (11730768_x_at) / RFU LINC00158 (11744669_a_at) / Fold change /veh LINC00158 (11744669_a_at) / RFU DUSP10 (11751237_a_at) / Fold change /veh DUSP10 (11751237_a_at) / RFU ID3 (11757404_x_at) / Fold change /veh ID3 (11757404_x_at) / RFU PLEKHG5 (11737974_s_at) / Fold change /veh PLEKHG5 (11737974_s_at) / RFU LRRC4B (11730491_at) / Fold change /veh LRRC4B (11730491_at) / RFU GIMAP4 (11747438_a_at) / Fold change /veh GIMAP4 (11747438_a_at) / RFU KRT8 (11758183_x_at) / Fold change /veh KRT8 (11758183_x_at) / RFU CNN1 (11734310_a_at) / Fold change /veh CNN1 (11734310_a_at) / RFU VPS37D (11726825_at) / Fold change /veh VPS37D (11726825_at) / RFU C10orf10 (11716522_x_at) / Fold change /veh C10orf10 (11716522_x_at) / RFU KIR2DL2 /// KIR2DL4 /// KIR2DL5A /// KIR2DL5B /// KIR2DS1 /// KIR2DS2 /// KIR2DS3 /// KIR2DS4 /// KIR3DL3 /// KIR3DL3 /// KIR3DS1 (11738374_at) / Fold change /veh KIR2DL2 /// KIR2DL4 /// KIR2DL5A /// KIR2DL5B /// KIR2DS1 /// KIR2DS2 /// KIR2DS3 /// KIR2DS4 /// KIR3DL3 /// KIR3DL3 /// KIR3DS1 (11738374_at) / RFU C1QL1 (11718748_at) / Fold change /veh C1QL1 (11718748_at) / RFU TMPRSS4 (11747572_a_at) / Fold change /veh TMPRSS4 (11747572_a_at) / RFU HAMP (11756126_x_at) / Fold change /veh HAMP (11756126_x_at) / RFU RNFT2 (11725882_a_at) / Fold change /veh RNFT2 (11725882_a_at) / RFU NR4A2 (11747474_a_at) / Fold change /veh NR4A2 (11747474_a_at) / RFU ABCC12 (11746883_a_at) / Fold change /veh ABCC12 (11746883_a_at) / RFU TMEM136 (11760407_x_at) / Fold change /veh TMEM136 (11760407_x_at) / RFU CLDN22 /// WWC2 (11732394_at) / Fold change /veh CLDN22 /// WWC2 (11732394_at) / RFU HLA-DPB1 (11760878_x_at) / Fold change /veh HLA-DPB1 (11760878_x_at) / RFU SPINT1 (11716480_a_at) / Fold change /veh SPINT1 (11716480_a_at) / RFU GAP43 (11754022_s_at) / Fold change /veh GAP43 (11754022_s_at) / RFU A4GNT (11735810_at) / Fold change /veh A4GNT (11735810_at) / RFU PRB3 (11715151_x_at) / Fold change /veh PRB3 (11715151_x_at) / RFU TUBB4B (11761932_at) / Fold change /veh TUBB4B (11761932_at) / RFU CAPN14 (11732068_a_at) / Fold change /veh CAPN14 (11732068_a_at) / RFU TMCC2 (11721928_a_at) / Fold change /veh TMCC2 (11721928_a_at) / RFU IRGQ (11745062_a_at) / Fold change /veh IRGQ (11745062_a_at) / RFU FAM174B (11720279_a_at) / Fold change /veh FAM174B (11720279_a_at) / RFU TMPRSS4 (11748680_a_at) / Fold change /veh TMPRSS4 (11748680_a_at) / RFU FAM212B (11763350_a_at) / Fold change /veh FAM212B (11763350_a_at) / RFU PLEKHG5 (11743358_a_at) / Fold change /veh PLEKHG5 (11743358_a_at) / RFU ZSCAN30 (11745921_a_at) / Fold change /veh ZSCAN30 (11745921_a_at) / RFU CMKLR1 (11741424_a_at) / Fold change /veh CMKLR1 (11741424_a_at) / RFU LOC101060620 /// MAPK8IP1 (11723275_at) / Fold change /veh LOC101060620 /// MAPK8IP1 (11723275_at) / RFU SPTSSB (11747773_x_at) / Fold change /veh SPTSSB (11747773_x_at) / RFU PRSS12 (11739890_at) / Fold change /veh PRSS12 (11739890_at) / RFU BIN1 (11741810_x_at) / Fold change /veh BIN1 (11741810_x_at) / RFU WNT11 (11732464_a_at) / Fold change /veh WNT11 (11732464_a_at) / RFU C10orf10 (11716521_a_at) / Fold change /veh C10orf10 (11716521_a_at) / RFU C5orf56 (11738089_at) / Fold change /veh C5orf56 (11738089_at) / RFU CYB561 (11721691_x_at) / Fold change /veh CYB561 (11721691_x_at) / RFU ANKRD19P (11752326_a_at) / Fold change /veh ANKRD19P (11752326_a_at) / RFU OR2T12 /// OR2T33 /// OR2T8 (11738714_s_at) / Fold change /veh OR2T12 /// OR2T33 /// OR2T8 (11738714_s_at) / RFU VCAN (11748164_a_at) / Fold change /veh VCAN (11748164_a_at) / RFU JSRP1 (11732532_at) / Fold change /veh JSRP1 (11732532_at) / RFU KRTAP10-11 (11738290_x_at) / Fold change /veh KRTAP10-11 (11738290_x_at) / RFU MYO3A (11730013_a_at) / Fold change /veh MYO3A (11730013_a_at) / RFU EBF3 (11725865_a_at) / Fold change /veh EBF3 (11725865_a_at) / RFU CAMK2N1 (11719241_x_at) / Fold change /veh CAMK2N1 (11719241_x_at) / RFU C5orf56 (11738088_a_at) / Fold change /veh C5orf56 (11738088_a_at) / RFU OLFML3 (11715873_a_at) / Fold change /veh OLFML3 (11715873_a_at) / RFU LOC100653217 /// NTM (11731650_a_at) / Fold change /veh LOC100653217 /// NTM (11731650_a_at) / RFU MAPK11 (11762145_a_at) / Fold change /veh MAPK11 (11762145_a_at) / RFU FIZ1 (11724087_x_at) / Fold change /veh FIZ1 (11724087_x_at) / RFU OASL (11726364_x_at) / Fold change /veh OASL (11726364_x_at) / RFU SOX15 (11748057_x_at) / Fold change /veh SOX15 (11748057_x_at) / RFU CD79A (11719716_a_at) / Fold change /veh CD79A (11719716_a_at) / RFU HIST1H1D (11736915_at) / Fold change /veh HIST1H1D (11736915_at) / RFU CASKIN2 (11723855_a_at) / Fold change /veh CASKIN2 (11723855_a_at) / RFU LOC730098 (11760151_x_at) / Fold change /veh LOC730098 (11760151_x_at) / RFU OR4N2 (11742367_at) / Fold change /veh OR4N2 (11742367_at) / RFU PRRT2 (11749266_a_at) / Fold change /veh PRRT2 (11749266_a_at) / RFU SNX32 (11753110_a_at) / Fold change /veh SNX32 (11753110_a_at) / RFU CDHR5 (11726645_a_at) / Fold change /veh CDHR5 (11726645_a_at) / RFU RCAN1 (11760418_a_at) / Fold change /veh RCAN1 (11760418_a_at) / RFU FAM167A (11723789_a_at) / Fold change /veh FAM167A (11723789_a_at) / RFU FAM26E (11764081_at) / Fold change /veh FAM26E (11764081_at) / RFU ISYNA1 (11749810_s_at) / Fold change /veh ISYNA1 (11749810_s_at) / RFU ACY1 (11761880_at) / Fold change /veh ACY1 (11761880_at) / RFU 11764098_at / Fold change /veh 11764098_at / RFU SAMD14 (11745864_x_at) / Fold change /veh SAMD14 (11745864_x_at) / RFU NPB (11741838_a_at) / Fold change /veh NPB (11741838_a_at) / RFU TMPRSS6 (11731388_a_at) / Fold change /veh TMPRSS6 (11731388_a_at) / RFU KRTAP10-2 (11738614_at) / Fold change /veh KRTAP10-2 (11738614_at) / RFU ARHGAP8 /// PRR5-ARHGAP8 (11727945_x_at) / Fold change /veh ARHGAP8 /// PRR5-ARHGAP8 (11727945_x_at) / RFU KRTAP5-7 /// NADSYN1 (11734609_at) / Fold change /veh KRTAP5-7 /// NADSYN1 (11734609_at) / RFU RASL12 (11751679_a_at) / Fold change /veh RASL12 (11751679_a_at) / RFU CDKN2B (11736163_a_at) / Fold change /veh CDKN2B (11736163_a_at) / RFU PRF1 (11729649_at) / Fold change /veh PRF1 (11729649_at) / RFU, ZNF638 /// ZNF638-IT1 / Fold change vs veh, ZNF638 /// ZNF638-IT1 / RFU, PANK3 / Fold change vs veh, PANK3 / RFU, SH3YL1 / Fold change vs veh, SH3YL1 / RFU, ZEB2 / Fold change vs veh, ZEB2 / RFU, NRIP1 / Fold change vs veh, NRIP1 / RFU, PTTG1IP / Fold change vs veh, PTTG1IP / RFU, CAPN2 / Fold change vs veh, CAPN2 / RFU, MED14 / Fold change vs veh, MED14 / RFU, SNORA58 / Fold change vs veh, SNORA58 / RFU, C1orf63 / Fold change vs veh, C1orf63 / RFU, LRRFIP1 / Fold change vs veh, LRRFIP1 / RFU, NDUFAF7 / Fold change vs veh, NDUFAF7 / RFU, SLC12A2 / Fold change vs veh, SLC12A2 / RFU, IBTK / Fold change vs veh, IBTK / RFU, ESF1 / Fold change vs veh, ESF1 / Fold change vs veh, TMEM50B / RFU, TAOK1 / Fold change vs veh, TAOK1 / RFU, ACBD3 / Fold change vs veh, ACBD3 / RFU, TMA16 / Fold change vs veh, TMA16 / RFU, RWDD3 / Fold change vs veh, RWDD3 / RFU, BCAT1 / Fold change vs veh, BCAT1 / RFU, EDEM3 / Fold change vs veh, EDEM3 / RFU, TMEM33 / Fold change vs veh, TMEM33 / RFU, WDR75 / Fold change vs veh, WDR75 / RFU, AHCTF1 / Fold change vs veh, AHCTF1 / RFU, TFRC / Fold change vs veh, TFRC / RFU, ZDHHC17 / Fold change vs veh, ZDHHC17 / RFU, NOM1 / Fold change vs veh, NOM1 / RFU, ARL8B / Fold change vs veh, ARL8B / RFU, ZBTB11 / Fold change vs veh, ZBTB11 / RFU, TAMM41 / Fold change vs veh, TAMM41 / RFU, KIAA1704 /// LOC100996395 / Fold change vs veh, KIAA1704 /// LOC100996395 / RFU, ING1 / Fold change vs veh, ING1 / RFU, TRMT61B / Fold change vs veh, TRMT61B / RFU, FUBP3 / Fold change vs veh, FUBP3 / RFU, TP53 / Fold change vs veh, TP53 / RFU, TNKS2 / Fold change vs veh, TNKS2 / RFU, ZFP14 / Fold change vs veh, ZFP14 / RFU, ACTR2 / Fold change vs veh, ACTR2 / RFU, PPP3R1 / Fold change vs veh, PPP3R1 / RFU, PIK3R1 / Fold change vs veh, PIK3R1 / RFU, HNRNPA1 / Fold change vs veh, HNRNPA1 / RFU, RNF170 / Fold change vs veh, RNF170 / RFU, ZNF28 / Fold change vs veh, ZNF28 / RFU, RNGTT / Fold change vs veh, RNGTT / RFU, OGT / Fold change vs veh, OGT / RFU, BRD1 / Fold change vs veh, BRD1 / RFU, MARS / Fold change vs veh, MARS / RFU, ZNF655 / Fold change vs veh, ZNF655 / RFU, FAHD1 / Fold change vs veh, FAHD1 / RFU, BDP1 / Fold change vs veh, BDP1 / RFU, LRRCC1 / Fold change vs veh, LRRCC1 / RFU, ARID1A / Fold change vs veh, ARID1A / RFU, ZNF146 / Fold change vs veh, ZNF146 / RFU, ZNF330 / Fold change vs veh, ZNF330 / RFU, GPN3 / Fold change vs veh, GPN3 / RFU, C9orf123 / Fold change vs veh, C9orf123 / RFU, N4BP2L2 / Fold change vs veh, N4BP2L2 / RFU, ARFIP1 / Fold change vs veh, ARFIP1 / RFU, FAM179B / Fold change vs veh, FAM179B / RFU, BCL10 / Fold change vs veh, BCL10 / RFU, UHRF1BP1L / Fold change vs veh, UHRF1BP1L / RFU, BET1 / Fold change vs veh, BET1 / RFU, CNOT2 / Fold change vs veh, CNOT2 / RFU, ZNF268 / Fold change vs veh, ZNF268 / Fold change vs veh, ZNF507 / RFU, DGCR2 / Fold change vs veh, DGCR2 / RFU, WDSUB1 / Fold change vs veh, WDSUB1 / Fold change vs veh, HSP90B1 /// MIR3652 / RFU, ADSS / Fold change vs veh, ADSS / RFU, GK / Fold change vs veh, GK / RFU, ZNF148 / Fold change vs veh, ZNF148 / RFU, TAF9 / Fold change vs veh, TAF9 / RFU, SLC1A5 / Fold change vs veh, SLC1A5 / RFU, SLMO2 / Fold change vs veh, SLMO2 / RFU, ABCC4 / Fold change vs veh, ABCC4 / RFU, LOC101060439 /// RAP1B / Fold change vs veh, LOC101060439 /// RAP1B / RFU, RFX7 / Fold change vs veh, RFX7 / RFU, GTPBP10 / Fold change vs veh, GTPBP10 / RFU, CNEP1R1 / Fold change vs veh, CNEP1R1 / RFU, BIVM-ERCC5 /// ERCC5 / Fold change vs veh, BIVM-ERCC5 /// ERCC5 / RFU, ILF3 / Fold change vs veh, ILF3 / RFU 11762660_at / Fold change /veh 11762660_at / RFU VCAN (11757783_s_at) / Fold change /veh VCAN (11757783_s_at) / RFU DDX43 (11728927_at) / Fold change /veh DDX43 (11728927_at) / RFU KRT8 (11758188_x_at) / Fold change /veh KRT8 (11758188_x_at) / RFU NKD1 (11759106_at) / Fold change /veh NKD1 (11759106_at) / RFU SRD5A1 (11742802_a_at) / Fold change /veh SRD5A1 (11742802_a_at) / RFU TPSAB1 /// TPSB2 (11721975_s_at) / Fold change /veh TPSAB1 /// TPSB2 (11721975_s_at) / RFU GSTM3 (11746129_a_at) / Fold change /veh GSTM3 (11746129_a_at) / RFU IL23R (11737362_x_at) / Fold change /veh IL23R (11737362_x_at) / RFU TMEM51 (11727254_a_at) / Fold change /veh TMEM51 (11727254_a_at) / RFU PIWIL2 (11732686_x_at) / Fold change /veh PIWIL2 (11732686_x_at) / RFU ORM1 (11744905_x_at) / Fold change /veh ORM1 (11744905_x_at) / RFU CCDC152 (11743942_at) / Fold change /veh CCDC152 (11743942_at) / RFU ECM1 (11717891_a_at) / Fold change /veh ECM1 (11717891_a_at) / RFU IL23R (11748794_a_at) / Fold change /veh IL23R (11748794_a_at) / RFU TNFAIP8L3 (11732012_x_at) / Fold change /veh TNFAIP8L3 (11732012_x_at) / RFU MBOAT4 (11741988_at) / Fold change /veh MBOAT4 (11741988_at) / RFU 11764193_at / Fold change /veh 11764193_at / RFU TMEM53 (11763286_at) / Fold change /veh TMEM53 (11763286_at) / RFU MAGEB2 (11727129_at) / Fold change /veh MAGEB2 (11727129_at) / RFU TMEM200A (11744735_a_at) / Fold change /veh TMEM200A (11744735_a_at) / RFU CCDC152 (11751479_a_at) / Fold change /veh CCDC152 (11751479_a_at) / RFU FAM211A (11726209_a_at) / Fold change /veh FAM211A (11726209_a_at) / RFU RGS16 (11746705_a_at) / Fold change /veh RGS16 (11746705_a_at) / RFU VCAN (11755009_s_at) / Fold change /veh VCAN (11755009_s_at) / RFU RHOB (11743442_s_at) / Fold change /veh RHOB (11743442_s_at) / RFU RGS16 (11720943_a_at) / Fold change /veh RGS16 (11720943_a_at) / RFU RGS16 (11720944_at) / Fold change /veh RGS16 (11720944_at) / RFU, VPS4B / Fold change vs veh, VPS4B / RFU, CREB1 / Fold change vs veh, CREB1 / RFU, DNAJC13 / Fold change vs veh, DNAJC13 / RFU, GNAQ / Fold change vs veh, GNAQ / RFU, CDK5R1 / Fold change vs veh, CDK5R1 / RFU, ZRANB3 / Fold change vs veh, ZRANB3 / RFU, CUL4A / Fold change vs veh, CUL4A / RFU, CCNY / Fold change vs veh, CCNY / RFU, UFL1 / Fold change vs veh, UFL1 / RFU, COG3 / Fold change vs veh, COG3 / RFU, DIAPH2 / Fold change vs veh, DIAPH2 / RFU, SKA2 / Fold change vs veh, SKA2 / RFU, AFF3 / Fold change vs veh, AFF3 / RFU, LMF1 / Fold change vs veh, LMF1 / RFU, IPO11 / Fold change vs veh, IPO11 / RFU, DFFB / Fold change vs veh, DFFB / RFU, FOXP1 / Fold change vs veh, FOXP1 / RFU, CARD8 / Fold change vs veh, CARD8 / RFU, STRN3 / Fold change vs veh, STRN3 / RFU, ADK / Fold change vs veh, ADK / RFU, RASSF2 / Fold change vs veh, RASSF2 / RFU, WIPF1 / Fold change vs veh, WIPF1 / RFU, LARP1B / Fold change vs veh, LARP1B / RFU, RASA1 / Fold change vs veh, RASA1 / RFU, RB1 / Fold change vs veh, RB1 / RFU, PPFIA1 / Fold change vs veh, PPFIA1 / RFU, MAT2A / Fold change vs veh, MAT2A / RFU, CCT5 / Fold change vs veh, CCT5 / RFU, WDR92 / Fold change vs veh, WDR92 / RFU, CUX1 / Fold change vs veh, CUX1 / RFU, TTC7A / Fold change vs veh, TTC7A / RFU, TMEM135 / Fold change vs veh, TMEM135 / RFU, DEPTOR / Fold change vs veh, DEPTOR / RFU, CPM / Fold change vs veh, CPM / RFU, DNAJB6 / Fold change vs veh, DNAJB6 / RFU, CACNA2D3 / Fold change vs veh, CACNA2D3 / RFU, DTX4 / Fold change vs veh, DTX4 / RFU, TFCP2 / Fold change vs veh, TFCP2 / RFU, GMCL1 /// GMCL1P1 / Fold change vs veh, GMCL1 /// GMCL1P1 / RFU, AEBP2 / Fold change vs veh, AEBP2 / RFU, SNHG1 /// SNORD22 /// SNORD25 /// SNORD26 /// SNORD27 /// SNORD28 /// SNORD29 /// SNORD31 / Fold change vs veh, SNHG1 /// SNORD22 /// SNORD25 /// SNORD26 /// SNORD27 /// SNORD28 /// SNORD29 /// SNORD31 / Fold change (Aza/veh), C12orf56 (ProbeSet 11735607_a_at) / Fold change (ACY-1035/veh), C12orf56 (ProbeSet 11735607_a_at) / Fold change (Aza/veh), FGFR1OP (ProbeSet 11751329_s_at) / Fold change (ACY-1035/veh), FGFR1OP (ProbeSet 11751329_s_at) / Fold change (Aza/veh), VPS36 (ProbeSet 11739960_a_at) / Fold change (ACY-1035/veh), VPS36 (ProbeSet 11739960_a_at) / RFU SYPL1 (11715823_x_at) / Fold change /veh SYPL1 (11715823_x_at) / RFU IGFBP7 (11715501_s_at) / Fold change /veh IGFBP7 (11715501_s_at) / RFU REEP3 (11722064_at) / Fold change /veh REEP3 (11722064_at) / RFU IGLL1 (11728026_x_at) / Fold change /veh IGLL1 (11728026_x_at): dose or concentration left out as unconfirmed. The conditions noted are these: ProbeSet 11728314_at; LIST B. It is filed as cell-based, human.

For the molecule `Nc1ccc(-c2cccs2)cc1NC(=O)c1ccc2c(c1)cc(C1CC1)n2CCN1CCOCC1` [ACY-1035], the “Fold change vs veh, ZNF148” value amounted to 0.92.
